Measured values reported in ChEMBL document CHEMBL3988442, “University of Dundee, Small-Polar-MMV Screening Library” (2021).

How the values were obtained:
[1] = microbe, parasite or virus in culture; settings: Mycobacterium tuberculosis, 72 h, read-out: pIC50 (converted)
[2] = microbe, parasite or virus in culture; settings: Mycobacterium tuberculosis, 96 h, read-out: pIC50 (converted)

| SMILES | IC50 [1] [µM] | IC50 [2] [µM] |
| --- | --- | --- |
| CC(=O)c1ccccc1NC(=O)CN1CC[C@H](N)C1 | 158 | > 501 |
| CCCOc1cc(C)ccc1NC(=O)Cn1cnnn1 | 273 | > 501 |
| NCc1ccncc1OCC(F)(F)F | > 501 | > 501 |
| CN(C)S(=O)(=O)c1cccc(CN2CCCC2)c1 | > 501 | > 501 |
| Nc1cnn(Cc2ccccn2)c1 | 206 | > 501 |
| CC(C)CC(C)Oc1cc(CN)ccn1 (stereo not given) | > 501 | > 501 |
| Cc1ccc(C(CN)N2CCCC2)o1 (stereo not given) | 101 | > 501 |
| CC(=O)c1ccc(Cl)c(S(=O)(=O)NC(CN)C2CC2)c1 (stereo not given) | 116 | 111 |
| CC(C)C(NCC(N)=O)c1ccc(F)cc1 (stereo not given) | > 501 | > 501 |
| CN(Cc1cccnc1)C(=O)c1cc(Cl)c[nH]1 | 281 | 333 |
| O=C(NC1CC1)N1CCN(c2ncccc2Cl)CC1 | > 501 | > 501 |
| CCN(CCO)Cc1cc(-c2cccs2)on1 | 145 | > 501 |
| COc1ncccc1C(=O)NCCc1cccs1 | 347 | 285 |
| COCc1nn(Cc2cccc3cccnc23)c(=O)o1 | 16.8 | 51.6 |
| NC1CCN(c2ccc(C(F)(F)F)cn2)CC1 | 91.6 | 139 |
| COC(CNC(=O)N1CCSCC1)c1ccc(F)cc1 (stereo not given) | > 501 | > 501 |
| OCCCn1nnc(-c2ccccc2)n1 | 158 | 120 |
| CN(Cc1ccncc1)S(=O)(=O)c1cccs1 | 116 | > 501 |
| CC(C)(C)OCCOc1ccc(OCCO)cc1 | 101 | 161 |
| Cc1ccccc1OCC(O)CN1CCC[C@@H]1CO (stereo not given in full) | 280 | > 501 |
| COc1cc(F)cc(NCC(=O)NCc2ccco2)c1 | 35 | 32.7 |
| COc1cccc(N2CCC(CN)C2)c1 (stereo not given) | 69.7 | 290 |
| Cc1cnn(CCNCc2ccc3c(c2)OCCO3)c1 | 127 | 211 |
| Cc1[nH]c2ccc(C(N)=O)cc2c1C | 20.8 | 41.9 |
| Cc1ccc(NC(=O)Cn2ccnc2)cc1 | 159 | 171 |
| NC(=O)CC1CCCC1 | > 501 | > 501 |
| NC(=O)NC(=O)CCN1CCCc2c(Br)cccc2C1 | 48 | 96 |
| CC(N)CCc1ccc2c(c1)OCO2 (stereo not given) | 185 | 274 |

| SMILES | IC50 [1] [µM] | IC50 [2] [µM] |
| --- | --- | --- |
| CCC1CN(C(=O)c2ccc3ccccc3n2)CCO1 (stereo not given) | 97.4 | > 501 |
| OCC(O)CSCCc1ccccc1Cl (stereo not given) | 136 | 473 |
| NCCCN1CCN(c2ccccc2F)CC1 | > 501 | > 501 |
| CCS(=O)(=O)NCCOc1ccc2c(c1)OCO2 | 230 | 204 |
| OCCCN1CCC(=Cc2ccccc2)CC1 | 277 | 250 |
| Fc1ccc(CSc2nnnn2CC2CCCO2)cc1 (stereo not given) | 39 | 80.8 |
| COCc1ccc(C(=O)NCc2cccc(F)c2)o1 | 59.4 | 35.8 |
| COc1cccc(SCC(=O)N2CCOC(C)C2)c1 (stereo not given) | > 501 | > 501 |
| CNC1CCN(c2cc(OC)cc(OC)c2)C1 (stereo not given) | 309 | 225 |
| COc1ccc(CC2CCN2)cc1 (stereo not given) | 212 | 250 |
| Cc1nc(C(=O)NCc2cccs2)ccc1C#N | 82.4 | 64.4 |
| O=C(NCCN1CCCC1)c1csc(-c2ccco2)n1 | 201 | 224 |
| CN(C)c1cc(CNc2ccc(C#N)cn2)ccn1 | 205 | 453 |
| CCS(=O)(=O)NCCSc1nc2cc(F)c(F)cc2[nH]1 | 468 | 448 |
| CC(C)NC(=O)Nc1cccc(S(=O)(=O)C(F)F)c1 | 264 | 219 |
| N#Cc1c(F)cccc1NCCSCCCO | 102 | 67.1 |
| c1ccc(NC2CCN(C3CCCC3)C2)nc1 (stereo not given) | > 501 | > 501 |
| CCC(=O)c1cccc(S(=O)(=O)NC(CN)C2CC2)c1 (stereo not given) | > 501 | > 501 |
| CNC(=O)C(C)Sc1nnnn1-c1ccccc1C (stereo not given) | 210 | 213 |
| O=S1(=O)CCCN(Cc2ccc(Br)c(F)c2)CC1 | 386 | 242 |
| Cc1csc(CNC(=O)c2ccco2)n1 | > 501 | > 501 |
| Cc1ccc(NC(=O)NCCS(=O)(=O)N(C)C)cc1Cl | 205 | 401 |
| O=C(CCN1CCCC1)N1CCc2ccccc21 | 391 | > 501 |
| CCCOc1ccc(CNC(=O)c2cc[nH]n2)cn1 | 114 | > 501 |
| CCNC1=NN=C(c2ccc3c(c2)OCCCO3)CS1 | 274 | > 501 |
| Brc1cncc(NCc2ncc[nH]2)c1 | 475 | > 501 |
| CC(C)Sc1nnc(-c2cccnc2)o1 | 8.8 | 219 |
